pIC50: −log10 of the molar value.
Experiments:
[1] = molecular target: T1, MAPK1(ERK2) enzyme (Homo sapiens, UniProt P28482); assay: Z-Lyte Kinase Assay of ERK2; assay type: biochemical; conditions: read-out: Example 18 IC50
T1 construct: purchased Invitrogen PV3313
Method: Example 18: Z-Lyte Kinase Assay of ERK2
1. Materials and Reagents:
2. Reaction Steps: Plate Map
3. Solution Preparation • 1) 1.33× Kinase Buffer: Dilute 5× Kinase Buffer to 1.33× with ddH2O • 2) 4× Test Compounds: Serially dilute the test compounds to 4 folds of the concentrations desired, keeping the DMSO concentration at 8%. The final concentrations are 1, 0.33, 0.11, 0.037, 0.012, 0.004, 0.0014, 0.00046 μM, and the final concentration of DMSO is 2%. • 3) Kinase/Peptide Mixture (P/K solution): Prepare Kinase/Peptide Mixture by diluting the kinase to 0.6 μg/ml and the Z-LYTE™ Ser/Thr3 peptide to 4 μM in 1.33× Kinase Buffer. Mix gently by pipetting. • 4) Phospho-peptide Solution (PP solution): Add 0.4 μl of Z-LYTE™ Ser/Thr3 Phospho-peptide to 99.6 μl of 1.33× Kinase Buffer. • 5) ATP Solution: Prepare ATP Solution by diluting the 10 mM of ATP in 1.33× Kinase Buffer to 100 μM. • 6) Development Solution: Dilute Development Reagent A with Development Buffer as 1:1024. 4. Reaction • 1) Kinase reaction (10 μl of Volume) • a. In a 384-well plate, add 2.5 μl of 4× test Cpds to each well except C1, C2, C3 wells Add 2.5 μl of 8% DMSO to C1, C2, C3 wells • b. Put the plate on ice • c. Add 5 μl of P/K mixture to each test Cpd wells and C1, C2 wells • d. Add 5 μl of PP Solution to C3 well • e. Add 2.5 μl of 1.33× kinase buffer to C1 and C3 wells • f. Add 2.5 μl of 4×ATP Solution to each test Cpd wells and C2 well, respectively. Shake the plate for 30 Sec and centrifuge (1500 rpm, 1 min) • g. Seal the plate to protect from the light and incubate the plate for 1 hour at RT (25-30° C.) • 2) Development reaction • a. Add 5 μl of the Development solution to all wells • b. Shake the plate for 30 sec and centrifuge (1500 rpm, 1 min) • c. Seal the plate to protect from the light and incubate the plate for 1 hour at RT (25-30° C.) • 3) Stop and read • a. Add 5 μl of the Stop reagent to all wells • b. Shake the plate for 30 sec and centrifuge (1500 rpm, 1 min) • c. Measure the value of coumarin (Ex400 nm, Em445 nm) and fluorescein (Ex400 nm, Em520 nm), respectively. 5. Data Analysis Emission Ratio(ER)=Coumarin Emission (445 nm)/Fluorescein Emission (520 nm) % Phosphorylation=1−[ER×C3520nm−C3445nm]/[(C1445nm−C3445nm)+ER×(C3520nm−C1520nm)] Inhibition rate (IR)=1−% Photest Cpd% PhoC2 6. IC50 Value: determine IC50 with add-in software for Microsoft Excel, XLfit™ (version 2.0) from ID Business Solutions (Guildford, UK)

[2] = tested on: p-RSK (Thr359) in colo205 cells; assay: p-RSK (Thr359) Acumen Assay in Colo205; assay type: cell-based; conditions: Homo sapiens, COLO 205, 1 hour compound incubation, read-out: Example 19 IC50
Method: Example 19: p-RSK (Thr359) Acumen Assay in Colo205
• Phospho-p90RSK (Thr359) (D1E9) Rabbit mAb: cell signal, #8753 • Alexa Fluor® 488 donkey anti-rabbit IgG: invitrogen, #A-21206 • Propidium Iodide: Sigma, #p4170 • 4% Paraformaldehyde: SCRC, #DF021 • 10% Triton X-100: PIERCE, #28314 • 96-well plate (black with clear bottom): BD, #354640 • Acumen® eX3 (A Multilaser Microplate Cytometer For Enhanced High Content Screening): TTP LabTech 3. Acumen Assay Protocol • Seed 4000 cells in 100 μl 10% FBS/well into 96-well plate, incubate at 37° C., 5% CO2, overnight. • Dilute the compound to 3, 1, 0.33, 0.11, 0.037, 0.012, 0.004, 0.001 μM, keeping the DMSO concentration at 5%. Add 10 μl of diluted compound per well and incubate at 37° C., 5% CO2 for 1 hour. • Add 100 μl of 4% pre-warmed Paraformaldehyde (2% final), and incubate for 45 min at room temperature. • Remove paraformaldehyde solutions. Add 100 μl of ice-cold 0.1% Triton to fixed cells at room temperature for 30 min. • Wash twice with 150 μl PBS and incubate with 100 μl blocking buffer (1% BSA, in PBS) for 2˜3 hours at room temperature, seal the plate. • Wash once with PBS and incubate with 35 μl p-RSK (Thr359) (1:1000 dilution) overnight at 4° C. Seal the plate. • Wash twice with PBS and incubate for 1.5 hours at room temperature with 35 μl of Alexa Fluor® 488 donkey anti-rabbit IgG at a 1:1,000 dilution in antibody dilution buffer (0.1% BSA, in PBS). Cover plate in foil to keep out of light. • Wash twice with 150 μl PBS. Add 35 μl of 1.5 μM Propidium Iodide stock to each well to determine cell number, seal the plate. • Incubate at room temperature for 30 min. Load the plate into the Acumen Explorer and scan with the appropriate instrument settings. 4. Data Analysis
[formula] Note: • Percentagecompound well represents the positive percentage of cells treated by compound. • Percentagemin well represents the positive percentage of cells treated with 3 uM GDC0994. • Percentagemax well represents the positive percentage of cells without compounds treatment. 5. IC50 Value: determine IC50 with add-in software for Microsoft Excel, XLfit™ (version 2.0) from ID Business Solutions (Guildford, UK)

T1 sequence (P28482 whole entry): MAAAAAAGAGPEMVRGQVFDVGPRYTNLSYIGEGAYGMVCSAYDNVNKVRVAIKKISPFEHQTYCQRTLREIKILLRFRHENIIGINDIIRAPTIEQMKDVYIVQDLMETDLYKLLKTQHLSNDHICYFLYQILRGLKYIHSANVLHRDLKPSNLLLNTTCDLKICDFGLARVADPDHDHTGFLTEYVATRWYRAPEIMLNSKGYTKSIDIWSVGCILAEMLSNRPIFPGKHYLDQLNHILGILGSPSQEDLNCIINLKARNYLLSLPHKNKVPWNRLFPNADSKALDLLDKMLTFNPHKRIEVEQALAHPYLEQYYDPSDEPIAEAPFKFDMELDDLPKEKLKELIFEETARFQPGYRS

`Cc1cnc(Nc2ccnn2C)cc1-c1cc2n(c1)C[C@H](CF)n1c-2nnc1C(F)(F)n1ccccc1=O` [Compound 124] was tested, and the pIC50 [1] was ≥ 8.30 and the pIC50 [2] was ≥ 7.00.

For `Cc1cnc(Nc2ccnn2C)nc1-c1cn2c(n1)-c1nnc(C(F)(F)c3ccccc3Cl)n1[C@@H](CF)C2` [Compound 225], the pIC50 [1] was ≥ 8.30 and the pIC50 [2] was ≥ 7.00.

`Cc1cnc(Nc2nncs2)nc1-c1cc2n(c1)C[C@H](C)n1c-2nnc1C(F)(F)c1ccccc1F` [Compound 287] was tested, and the pIC50 [1] was 8.00 to 8.30 and the pIC50 [2] was ≥ 7.00.

`C[C@H]1Cn2cc(-c3cc(Nc4ccnn4C)ncc3F)cc2-c2nnc(C(F)(F)n3cc(Cl)cn3)n21` [Compound 109] was tested, and the pIC50 [1] was ≥ 8.30 and the pIC50 [2] was < 7.00.

In the case of `Cn1nccc1Nc1cc(-c2cc3n(c2)C[C@H](Cc2ccccc2)n2c-3nnc2C2(C(F)(F)F)CCC2)c(Cl)cn1` [Compound 210], the pIC50 [1] was < 8.00 and the pIC50 [2] was < 7.00.

In the case of `Cn1nccc1Nc1cc(-c2cc3n(c2)CC2(CC2)n2c-3nnc2C(F)(F)C(F)F)c(F)cn1` [Compound 235], the pIC50 [1] was 8.00 to 8.30 and the pIC50 [2] was ≥ 7.00.

In the case of `Cn1nccc1Nc1cc(-c2cc3n(c2)CCCn2c(COCC(F)(F)F)nnc2-3)c(Cl)cn1` [Compound 25], the pIC50 [1] was ≥ 8.30 and the pIC50 [2] was < 7.00.

With `Cc1cnc(Nc2ccnn2C)cc1-c1cc2n(c1)C[C@H](C(F)F)n1c-2nnc1C(F)(F)c1ccccc1F` [Compound 179] the pIC50 [1] was < 8.00 and the pIC50 [2] was ≥ 7.00.

`Cn1nccc1Nc1cc(-c2cc3n(c2)CCCn2c(COC(F)(F)F)nnc2-3)c(Cl)cn1` [Compound 11] was tested, and the pIC50 [1] was ≥ 8.30 and the pIC50 [2] was ≥ 7.00.

For `Cc1cnc(Nc2c3c(nn2C)CCC3)nc1-c1cc2n(c1)C[C@H](CF)n1c(Cc3ccccc3F)nnc1-2` [Compound 150], the pIC50 [1] was ≥ 8.30 and the pIC50 [2] was ≥ 7.00.

`COC1(c2nnc3n2[C@@H](CF)Cn2cc(-c4cc(Nc5ccnn5C)ncc4Cl)cc2-3)CCC1` [Compound 64] was tested, and the pIC50 [1] was ≥ 8.30 and the pIC50 [2] was < 7.00.

For `Cn1nccc1Nc1cc(-c2cc3n(c2)C[C@H](CF)n2c-3nnc2C2(F)CC2)c(Cl)cn1` [Compound 56], the pIC50 [1] was ≥ 8.30 and the pIC50 [2] was ≥ 7.00.

For `Cn1nccc1Nc1cc(-c2cc3n(c2)CC2(COC2)n2c(CCC(F)(F)F)nnc2-3)c(Cl)cn1` [Compound 305], the pIC50 [1] was ≥ 8.30 and the pIC50 [2] was < 7.00.

With `Cc1cnc(NC2CCOCC2)nc1-c1cc2n(c1)CCCn1c-2nnc1C1(C(F)(F)F)CCC1` [Compound 277] the pIC50 [1] was ≥ 8.30 and the pIC50 [2] was ≥ 7.00.

For `Cn1nccc1Nc1cc(-c2cc3n(c2)CCn2c-3nnc2C2(C(F)F)CCC2)c(Cl)cn1` [Compound 46], the pIC50 [1] was ≥ 8.30 and the pIC50 [2] was ≥ 7.00.

`Cn1nccc1Nc1nccc(-c2cn3c(c2Cl)-c2nnc(COc4ccccc4F)n2CCC3)n1` [Compound 257] was tested, and the pIC50 [1] was 8.00 to 8.30 and the pIC50 [2] was ≥ 7.00.

For `Cn1nccc1Nc1cc(-c2cc3n(c2)CCCCn2c-3nnc2C2(C(F)(F)F)CCC2)c(Cl)cn1` [Compound 261], the pIC50 [1] was < 8.00 and the pIC50 [2] was ≥ 7.00.

In the case of `Cn1nccc1Nc1cc(-c2cc3n(c2)C[C@H](O)Cn2c-3nnc2C2(C(F)(F)F)CCC2)c(Cl)cn1` [Compound 215, (S)-10-(5-chloro-2-((1-methyl-1H-pyrazol-5-yl)amino)pyridin-4-yl)-3-(1-(trifluoromethyl)cyclobutyl)-6,7-dihydro-5H-pyrrolo[1,2-a][1,2,4]triazolo[3,4-c][1,4]diazepin-6-ol], the pIC50 [1] was ≥ 8.30 and the pIC50 [2] was ≥ 7.00.
